From patent US5744451A, “N-substituted glutamic acid derivatives with interleukin-1 β converting enzyme inhibitory activity” (Warner-Lambert Company, priority 1996, dated 1998)
Residues, ends and D or L forms follow the SMILES beside them.

Key:
[1] = tested on: human peripheral blood mononuclear cells (PBMCs); experiment: Viability of PBMCs by MTT assay; type: cell-based; settings: compound at 100 μM, additional 4 hours with MTT
Excerpt: Further evidence that compounds of Formula I are valuable inhibitors of ICE is provided by their ability to inhibit IL-1β production in human peripheral blood mononuclear cells (PBMCs) as described herein. PBMCs are isolated from heparinized blood by centrifugation over a ficoll cushion, then washed three times with phosphate-buffered saline. PBMCs are suspended in a medium containing RPMI 1640 with glutamine, penicillin, streptomycin and 2% human AB serum, then plated at 10^6 cells per well in 96-well flat bottom plates. PBMCs are stimulated overnight with 10 ng/mL of lipopolysaccharide (LPS, E. Coli strain 0111:B4; Calbiochem) in the presence or absence of a compound of Formula I. Medium is harvested and the level of mature IL-1β was determined using an ELISA kit from R & D Systems. Cells were cultured for an additional 4 hours in the presence of 3-(4,5-dimethylthiazol-2-yl)-2,5-diphenyltetrazolium bromide (MTT) to determine viability.

[2] = target: T1, ICE (interleukin-1β converting enzyme) (Homo sapiens, UniProt P29466); experiment: ICE inhibition, fluorogenic Ac-Tyr-Val-Ala-Asp-AMC hydrolysis progress curves (Ki and kon); type: biochemical; settings: [I]=2 or 4 μM
T1 sequence (P29466 120-297 limits assumed): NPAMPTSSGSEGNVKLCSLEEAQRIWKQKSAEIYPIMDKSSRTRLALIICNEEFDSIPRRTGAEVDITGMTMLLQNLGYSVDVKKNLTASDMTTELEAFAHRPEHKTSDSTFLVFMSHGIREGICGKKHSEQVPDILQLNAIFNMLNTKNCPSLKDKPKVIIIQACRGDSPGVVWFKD
T1 sequence (P29466 317-404 limits assumed): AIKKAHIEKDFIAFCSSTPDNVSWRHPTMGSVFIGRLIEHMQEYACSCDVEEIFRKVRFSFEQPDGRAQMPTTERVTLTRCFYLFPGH
Experimental: The progress curves are fit to the equation F=F0 +Vf.t+(Vi -Vf) (1-exp(-kobs t))/kobs, where F0 is the initial fluorescence, Vi and Vf are initial and final reaction velocities, and kobs is the pseudo first-order rate of inhibition. Ki is calculated as Ki =SPF.[I]Vf /(Vi -Vf), where the substrate protection factor (SPF) is 1+[S]/Km =17.7. kon is calculated as SPF.kobs /[I].

**Q.** How did the “cell viability after treatment (MTT assay)” value [1] turn out when `CC(=O)N[C@@H](Cc1ccc(O)cc1)C(=O)N[C@H](C(=O)N[C@@H](C)C(=O)N[C@H](C=O)CCC(=O)O)C(C)C` [Ac-Tyr-Val-Ala-Glu[CHO]] (Ac-YVAE-aldehyde) was run?
**A.** > 95%

**Q.** What about the Ki ([2]; ICE 0.24 nM, 250 μM substrate Ac-Tyr-Val-Ala-Asp-AMC, corrected by SPF 17.7, read-out: Ki against ICE) of the same compound?
**A.** 1.8 nM

**Q.** And the kon ([2]; kon = SPF.kobs/[I], read-out: kon against ICE)?
**A.** 17200 M⁻¹ s⁻¹
